From ChEMBL document CHEMBL3046549, “Comparative quantitative structureactivity relationship study of some 1-aminocyclopentyl-3-carboxyamides as CCR2 inhibitors using stepwise MLR, FA-MLR, and GA-PLS” (Med Chem Res, 2012)

Target: C-C chemokine receptor type 2 (Homo sapiens, UniProt P41597)
Test: Antagonist activity at CCR2 (unknown origin)

C-C chemokine receptor type 2, sequence (P41597 whole entry): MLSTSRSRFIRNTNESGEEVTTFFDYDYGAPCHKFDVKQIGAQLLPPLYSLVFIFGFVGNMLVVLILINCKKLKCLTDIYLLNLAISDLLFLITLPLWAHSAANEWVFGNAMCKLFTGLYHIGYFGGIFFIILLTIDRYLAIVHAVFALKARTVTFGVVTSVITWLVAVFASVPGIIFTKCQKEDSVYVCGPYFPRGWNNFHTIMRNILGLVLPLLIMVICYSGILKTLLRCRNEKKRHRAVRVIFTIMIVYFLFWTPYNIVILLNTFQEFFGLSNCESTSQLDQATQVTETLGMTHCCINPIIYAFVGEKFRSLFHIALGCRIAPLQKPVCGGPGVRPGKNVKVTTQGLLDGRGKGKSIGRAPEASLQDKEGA

SMILES	IC50
CC(C)[C@]1(C(=O)NCc2cc(C(F)(F)F)cc(C(F)(F)F)c2)CC[C@@H](NC2CCOCC2F)C1 (stereo partly specified)	0.0511 µM
CC1COCCC1N[C@@H]1CC[C@@](C(=O)NCc2cc(C(F)(F)F)cc(C(F)(F)F)c2)(C(C)C)C1 (stereo partly specified)	0.239 µM
CC(C)[C@]1(C(=O)NCc2cc(C(F)(F)F)cc(C(F)(F)F)c2)CC[C@@H](NC2CCOCC2O)C1 (stereo partly specified)	0.123 µM
CC1CC(N[C@@H]2CC[C@@](C(=O)NCc3cc(C(F)(F)F)cc(C(F)(F)F)c3)(C(C)C)C2)CCO1 (stereo partly specified)	0.766 µM
CC1COCC(C)C1N[C@@H]1CC[C@@](C(=O)NCc2cc(C(F)(F)F)cc(C(F)(F)F)c2)(C(C)C)C1 (stereo partly specified)	0.23 µM
CC(C)[C@]1(C(=O)NCc2cc(C(F)(F)F)cc(C(F)(F)F)c2)CC[C@@H](NC2CCOCC2)C1	0.056 µM
CC(C)[C@]1(C(=O)NCc2cc(C(F)(F)F)cc(C(F)(F)F)c2)CC[C@@H](NC2CCSCC2)C1	0.036 µM
CC(C)[C@]1(C(=O)NCc2cc(C(F)(F)F)cc(C(F)(F)F)c2)CC[C@@H](NC2CCc3ccccc3C2)C1 (stereo partly specified)	0.187 µM

Now those with a lower IC50, led by results:

IC50	SMILES
0.028 µM	CC(C)[C@]1(C(=O)NCc2cc(C(F)(F)F)cc(C(F)(F)F)c2)CC[C@@H](NC2CCOCC2(C)C)C1 (stereo partly specified)
0.006 µM	CC(C)[C@]1(C(=O)NCc2cc(C(F)(F)F)cc(C(F)(F)F)c2)CC[C@@H](NC2CCOCC2C(F)(F)F)C1 (stereo partly specified)
0.003 µM	CCCC1COCCC1N[C@@H]1CC[C@@](C(=O)NCc2cc(C(F)(F)F)cc(C(F)(F)F)c2)(C(C)C)C1 (stereo partly specified)
0.0078 µM	CC(C)[C@]1(C(=O)NCc2cc(C(F)(F)F)cc(C(F)(F)F)c2)CC[C@@H](NC2CCOCC2C2CC2)C1 (stereo partly specified)
0.0046 µM	CC(C)[C@]1(C(=O)NCc2cc(C(F)(F)F)cc(C(F)(F)F)c2)CC[C@@H](NC2CCCOC2)C1 (stereo partly specified)
0.022 µM	CC(C)[C@]1(C(=O)NCc2cc(C(F)(F)F)cc(C(F)(F)F)c2)CC[C@@H](NC2CCSC2)C1 (stereo partly specified)
0.0015 µM	CCC1COCCC1N[C@@H]1CC[C@@](C(=O)NCc2cc(C(F)(F)F)cc(C(F)(F)F)c2)(C(C)C)C1 (stereo partly specified)
0.0055 µM	CC(C)[C@]1(C(=O)NCc2cc(C(F)(F)F)cc(C(F)(F)F)c2)CC[C@@H](NC2CCOCC2(O)C(F)(F)F)C1 (stereo partly specified)
